Results taken from patent publication US12419852B2, “Method for treating lysosomal storage disease” (Exerkine Corporation, priority 2018, dated 2025).

Tests used:
[1] = test system: Complex IV enzyme activity; experiment: Complex IV (COX IV) enzymatic activity in quadriceps muscle; assay type: in vivo, mice; settings: skeletal muscle, after 8 weeks
Description: (§1) Experimental groups All mice were fed standard rodent chow (chow diet; Harlan Teklad 8640 22/5), as a base diet with the exception of the group receiving a conventional […] diet (% kcal of SRT diet being 93.2% fat, 6.4% protein and 0.4% carbohydrates; Envigo, TD.07797). […]
To measure COX IV enzymatic activity, quadriceps muscle was homogenized in Lysing Matrix D tubes (MP Biomedicals, Solon, OH, USA) using the FastPrep-24 Tissue and Cell Homogenizer (MP Biomedicals, Solon, OH, USA) for 5×5-second cycles at a speed of 4.0 m/s with samples placed on ice for 5 minutes between cycles. […] The rate of oxidation of reduced cytochrome c was measured at 550 nm for 3 min at 37° C.

[2] = test system: autophagic buildup in skeletal muscle of GAA knockout mice; experiment: Autophagic buildup scored on electron micrographs of skeletal muscle; assay type: in vivo; settings: skeletal muscle electron micrographs after 8 weeks; 0=no buildup to 3=severe, 7 micrographs; FIG. 2A
Description: as §1
(§2) Grip strength, motor coordination, and balance were evaluated prior to the introduction of the experimental diets. Motor coordination and balance were evaluated using a rotarod apparatus (Harvard Apparatus, MA), while forelimb grip strength was evaluated using a metal gripping bar attached to a DFIS-10 Chatillon digital force gage. Upon completion of the baseline testing, all groups were administered their respective experimental diets for a period of 8 weeks, when grip strength, motor coordination, and balance were re-evaluated as endpoint measures. […] The proteins p62, ubiquitin and mitochondrial complexes 1-5 were evaluated in quadriceps muscle using the following antibodies in 5% milk: p62 (Cell Signalling, Cat. #51145), ubiquitin (Enzo Life Sciences, Cat. #UG95100100) and Total OXPHOS Rodent WB Antibody Cocktail (Abcam, Cat. #ab110413). Autophagic buildup was determined using electron micrographs generated by the McMaster Electron Microscopy Facility. […]

GAA knockout mice [3] = experiment: Rotarod performance (motor coordination and balance) in GAA knockout mice; assay type: in vivo; settings: change over 8 weeks, FIG. 1B
Description: (§3) To determine if the ketogenic agent and enhanced ketogenic composition could improve autophagic activity, muscle function and mitochondrial capacity in mice having a lysosomal storage disease, mice lacking the acid alpha glucosidase (GAA) protein (an established mouse model of Pompe disease) were administered the ketogenic agent, the enhanced ketogenic composition or one of several control diets for a period of 8 weeks.
(§4) Breeding of GAA mice. Four GAA heterozygous breeding pairs (HET; GAA−/+; 6neo/6+) were obtained from Jackson Laboratories (Maine, USA) to generate homozygous GAA knock-outs (GAA; GAA−/−; 6neo/6neo). Mice were housed at McMaster University's Central Animal Facility in standard cages in 12-h light/dark cycles with ad libitum access to water and their respective diets. […]
(§5) Grip strength, motor coordination, and balance were evaluated prior to the introduction of the experimental diets. Motor coordination and balance were evaluated using a rotarod apparatus (Harvard Apparatus, MA), while forelimb grip strength was evaluated using a metal gripping bar attached to a DFIS-10 Chatillon digital force gage. Upon completion of the baseline testing, all groups were administered their respective experimental diets for a period of 8 weeks, when grip strength, motor coordination, and balance were re-evaluated as endpoint measures. […]

[4] = test system: mitochondrial complexes 1-5; experiment: Western blotting for mitochondrial complexes 1-5 protein in quadriceps muscle; assay type: in vivo, mice; settings: western blot, range over the five complexes, FIGS. 3B-F
Description: as §1, §2

GAA knockout mice [5] = experiment: Forelimb grip strength in GAA knockout mice (Pompe disease model); assay type: in vivo; settings: change over the 8 week period, FIG. 1A
Description: as §3, §4, §5

p62 protein = experiment: Western blotting for p62 in quadriceps muscle; assay type: in vivo, mice; settings: western blot, after 8 weeks, FIG. 2B
Description: as §1, §2

[6] = Pompe disease, 2 weeks after the infusion; cited from earlier work

Molecule	ratio of mean complex IV enzyme activity to mean complex IV protein content, lower compared to WT CON [1]	autophagic buildup score (per mouse total score out of 21) [2]	improvement in duration of time able to balance on the rotarod apparatus (GAA knockout mice [3])	protein levels of mitochondrial complexes 1-5 higher compared to WT CON [4]	decline in forelimb grip strength (GAA knockout mice [5])	p62 protein expression lower than GAA CON group (p62 protein)	fraction of infused protein retained within skeletal muscle [6]
CC(O)CCO (stereo not shown) [ERT+1,3 BD, 1,3 butanediol]	41%	12/21	46%	219-647%	relatively unchanged	59%	
ERT: Enzyme replacement therapy: bi-weekly intravenous injections of 40 mg/kg recombinant GAA enzyme (Myozyme; Genzyme)	43%	15/21	little or no change	103-250%	20%	23%	
recombinant GAA protein: Infused recombinant acid alpha-glucosidase (GAA) protein used as enzyme replacement therapy in Pompe disease							1-3%
